Measurements taken from ChEMBL document CHEMBL5370571, “α-Synuclein Aggregation Inhibitory and Antiplasmodial Activity of Constituents from the Australian Tree Eucalyptus cloeziana” (J Nat Prod, 2023).
Calls of active or inactive are those of the source. The calls are words filed in the database; no cut-off is given here.

Experiments:
[1] = tested on: Staphylococcus aureus; experiment: Antibacterial activity against methicillin-susceptible Staphylococcus aureus ATCC 25923 at 64 ug/mL incubated for 16 to 18 hrs by resazurin dye based fluorescence assay; type: functional, organism-based; conditions: dose 64.0 µg/ml, time 16-18 hrs
[2] = tested on: Staphylococcus aureus; experiment: Antibacterial activity against methicillin-resistant Staphylococcus aureus ATCC 43300 at 64 ug/mL incubated for 16 to 18 hrs by resazurin dye based fluorescence assay; type: functional, organism-based; conditions: dose 64.0 µg/ml, time 16-18 hrs
[3] = biological target: Alpha-synuclein (Homo sapiens) (UniProt P37840); experiment: Inhibition of human alpha-synuclein aggregation expressed in Escherichia coli BL21 (DE3) at 10:1 compound to protein molar ratio measured after 36 hrs by thioflavin T fluorescence assay relative to control; conditions: concentration not given here
[4] = tested on: Pseudomonas aeruginosa; experiment: Antibacterial activity against Pseudomonas aeruginosa ATCC 27853 at 64 ug/mL incubated for 18 hrs by resazurin dye based fluorescence assay; type: functional, organism-based; conditions: dose 64.0 µg/ml
[5] = biological target: Alpha-synuclein (Homo sapiens) (UniProt P37840); experiment: Binding affinity to human alpha-synuclein expressed in Escherichia coli BL21 (DE3) at 100 uM incubated for 3 hrs by ETD Q-TOF ((+) HRESIMS) analysis
[6] = biological target: Alpha-synuclein (Homo sapiens) (UniProt P37840); experiment: Inhibition of human alpha-synuclein aggregation expressed in Escherichia coli BL21 (DE3) at 400 uM measured after 36 hrs by thioflavin T fluorescence assay
[7] = tested on: Plasmodium falciparum; experiment: Antiplasmodial activity against ring stage drug-sensitive Plasmodium falciparum 3D7 assessed as inhibition of parasite growth incubated for 72 hrs by DAPI staining based assay; type: functional, organism-based; conditions: 3D7, 72 h
[8] = tested on: HEK293; experiment: Cytotoxicity against HEK293 cells assessed as reduction in cell viability at 80 uM measured after 72 hrs by resazurin dye based fluorescence assay relative to control; type: toxicity; conditions: human, hek293, 72 h
[9] = Selectivity index, ratio of IC50 for cytotoxicity against HEK293 cells to IC50 for antiplasmodial activity against ring stage drug-sensitive Plasmodium falciparum 3D7; type: toxicity, cell-based; conditions: human, HEK293 cells versus ring stage Plasmodium falciparum 3D7; read-out: Ratio IC50
[10] = tested on: Plasmodium falciparum; experiment: Antiplasmodial activity against Plasmodium falciparum 3D7 assessed as inhibition of parasite growth; type: functional, organism-based
[11] = Cytotoxicity against HEK293 cells assessed as reduction in cell viability measured after 72 hrs by resazurin dye based fluorescence assay; type: toxicity; conditions: human
[12] = tested on: Plasmodium falciparum; experiment: Antiplasmodial activity against ring stage drug-sensitive Plasmodium falciparum 3D7 assessed as inhibition of parasite growth at 40 uM incubated for 72 hrs by DAPI staining based assay; type: functional, organism-based

SMILES	Activity [5]	IC50 [7]	Activity [8]	selectivity ratio [9]	further results
CC(C)C[C@]1(O)C(O)=C([C@@H](C2=C(O)C(C)(C)C(=O)C(C)(C)C2=O)C(C)C)C(=O)C([C@H](C2=C(O)C(C)(C)C(=O)C(C)(C)C2=O)C(C)C)=C1O	Active	9.5 µM	Non-Toxic	> 8.4	Activity [1]: inactive; Activity [2]: inactive; inhibition [3]: 39.5%; Activity [4]: inactive; inhibition [6]: inactive
CC(C)(O)[C@@H]1CC[C@@]2(C)CCC[C@@](C)(O)[C@@H]2C1	inactive	–	–	–	–
CC(C)C[C@@]1(O)C(=O)C(C)(C)C(=O)C(C)(C)[C@H]1OC(=O)C(C)C	inactive	6.6 µM	Non-Toxic	> 12.1	Activity [1]: inactive; Activity [2]: inactive; Activity [4]: inactive
CCc1nc(N)nc(N)c1-c1ccc(Cl)cc1 [PYRIMETHAMINE]	–	0.017 µM	31%	588	–
CC(C)CC(=O)c1c(O)c2c(c3c1O[C@@]1(C(C)C)OC4=C(C(=O)C(C)(C)C(=O)C4(C)C)[C@@H]31)OC1=C(C(=O)C(C)(C)C(=O)C1(C)C)[C@H]2CC(C)C	–	–	–	–	IC50 [10]: 1 µM
C[C@H]1[C@H](OC(=O)CCC(=O)O)O[C@@H]2O[C@@]3(C)CC[C@H]4[C@H](C)CC[C@@H]1[C@@]24OO3 [ARTESUNATE]	–	0.0014 µM	20%	1750	–
O=C1C=C(c2ccc(O)cc2)[C@@]2(O1)O[C@@]1(OC(=O)C=C1c1ccc(O)cc1)C(c1ccc(O)cc1)=C2c1ccc(O)cc1	–	–	–	–	IC50 [10]: 5.1 µM
CC(C)CC(=O)c1c(O)c2c(c3c1O[C@@]1(C(C)C)OC4=C(C(=O)C(C)(C)C(=O)C4(C)C)[C@@H]31)OC1=C(C(=O)C(C)(C)C(=O)C1(C)C)[C@@H]2CC(C)C	–	–	–	–	IC50 [10]: > 40 µM
CC1(C)C=C2C(=O)C(C)(C)C(=O)C(C)(C)[C@@]2(O)OO1	inactive	–	–	–	–
CC(C)=CC(=O)[C@]1(O)[C@@H](O)C(C)(C)C(=O)C1(C)C	inactive	–	–	–	–
COc1ccc(C[C@H](N)C(=O)N[C@H]2[C@@H](O)[C@H](n3cnc4c(N(C)C)ncnc43)O[C@@H]2CO)cc1 [PUROMYCIN]	–	0.091 µM	–	9.2	IC50 at 72 h [11]: 0.837 µM
CC(C)=C[C@@]1(O)C(=O)C(C)(C)C(=O)C(C)(C)[C@H]1OC(=O)C(C)C	inactive	16 µM	Non-Toxic	> 5	Activity [1]: inactive; Activity [2]: inactive; Activity [4]: inactive
CC1(C)CC2=C(OO1)C(C)(C)C(=O)C(C)(C)C2=O	inactive	–	Non-Toxic	–	–
CC(C)CC[C@]1(O)[C@H](O)C(C)(C)[C@@H](O)C(C)(C)[C@@H]1O	–	–	–	–	Activity [12]: inactive
CC(=O)O[C@@H]1C(C)(C)C(=O)C(C)(C)C(=O)[C@]1(O)CC(C)C	inactive	–	–	–	–
